# Measured values published in patent publication US12351565B2, “Aromatic compound and preparation method therefor and use thereof” (SHANGHAI JIANHE PHARMACEUTICAL & TECHNOLOGY CO. LTD., priority 2018, dated 2025).
# pIC50: −log10 of the molar value.
# Target: T1, hERG potassium channel (Homo sapiens, UniProt Q12809)
# T1 construct: expressed in transfected cells
# Test: hERG potassium channel inhibition experiment (automatic patch clamp, CHO-hERG cells)
# Type: cell-based
# Settings: Qpatch, highest tested concentration 40 μM, read-out: IC50, blocking effect on the hERG potassium current
# Procedure: Fully automatic patch clamps were used to test the blocking effect of the compounds of the present invention on the hERG potassium current on a stable cell line transfected with hERG potassium channels.
# CHO-hERG cells were cultured in 175 cm^2 culture flask. When the cell grew to 60-80% confluence, the culture medium was removed. The cells were washed with 7 ml PBS (Phosphate Buffered Saline) once, and then 3 ml Detachin was added to digest.
# After the digestion was completed, 7 ml culture medium was added to neutralize. The mixture was centrifuged, and after the supernatant was removed, 5 ml culture medium was added to resuspend to ensure the cell density was 2×10^6-5×10^6/ml.
# Single-cell high-impedance sealing and whole-cell mode formation were all automatically completed by using the Qpatch instrument. After the recording mode was obtained, the cell was clamped at −80 millivolts. Before +40 millivolt depolarization stimulation for 5 seconds was given, −50 millivolt pre-voltage for 50 millisecond was first given, then repolarized to −50 millivolt for 5 seconds, and then returned to −80 millivolt. This voltage stimulus was applied every 15 seconds. After recording for 2 min, extracellular fluid was given, and recording was conducted for 5 min, and then the dosing process started. The compound concentration started from the lowest test concentration, and each test concentration was given for 2.5 min. […] At least 3 cells per concentration (n≥3) were tested.
# 20 mM compound mother liquor was diluted with extracellular fluid. 5 μL of 20 mM compound mother liquor was taken and added into 2495 μL extracellular fluid, so that it was diluted 500 times to 40 μM, and was then serially diluted 3 times in an extracellular fluid containing 0.2% DMSO to obtain the final concentration to be tested.
# The highest tested concentration was 40 μM, and the concentrations were in order as follows: 40, 13.33, 4.44, 1.48, 0.49, 0.16 μM, totally 6 concentrations.
# Experimental data were analyzed by XLFit software.
# T1 sequence (Q12809 whole entry): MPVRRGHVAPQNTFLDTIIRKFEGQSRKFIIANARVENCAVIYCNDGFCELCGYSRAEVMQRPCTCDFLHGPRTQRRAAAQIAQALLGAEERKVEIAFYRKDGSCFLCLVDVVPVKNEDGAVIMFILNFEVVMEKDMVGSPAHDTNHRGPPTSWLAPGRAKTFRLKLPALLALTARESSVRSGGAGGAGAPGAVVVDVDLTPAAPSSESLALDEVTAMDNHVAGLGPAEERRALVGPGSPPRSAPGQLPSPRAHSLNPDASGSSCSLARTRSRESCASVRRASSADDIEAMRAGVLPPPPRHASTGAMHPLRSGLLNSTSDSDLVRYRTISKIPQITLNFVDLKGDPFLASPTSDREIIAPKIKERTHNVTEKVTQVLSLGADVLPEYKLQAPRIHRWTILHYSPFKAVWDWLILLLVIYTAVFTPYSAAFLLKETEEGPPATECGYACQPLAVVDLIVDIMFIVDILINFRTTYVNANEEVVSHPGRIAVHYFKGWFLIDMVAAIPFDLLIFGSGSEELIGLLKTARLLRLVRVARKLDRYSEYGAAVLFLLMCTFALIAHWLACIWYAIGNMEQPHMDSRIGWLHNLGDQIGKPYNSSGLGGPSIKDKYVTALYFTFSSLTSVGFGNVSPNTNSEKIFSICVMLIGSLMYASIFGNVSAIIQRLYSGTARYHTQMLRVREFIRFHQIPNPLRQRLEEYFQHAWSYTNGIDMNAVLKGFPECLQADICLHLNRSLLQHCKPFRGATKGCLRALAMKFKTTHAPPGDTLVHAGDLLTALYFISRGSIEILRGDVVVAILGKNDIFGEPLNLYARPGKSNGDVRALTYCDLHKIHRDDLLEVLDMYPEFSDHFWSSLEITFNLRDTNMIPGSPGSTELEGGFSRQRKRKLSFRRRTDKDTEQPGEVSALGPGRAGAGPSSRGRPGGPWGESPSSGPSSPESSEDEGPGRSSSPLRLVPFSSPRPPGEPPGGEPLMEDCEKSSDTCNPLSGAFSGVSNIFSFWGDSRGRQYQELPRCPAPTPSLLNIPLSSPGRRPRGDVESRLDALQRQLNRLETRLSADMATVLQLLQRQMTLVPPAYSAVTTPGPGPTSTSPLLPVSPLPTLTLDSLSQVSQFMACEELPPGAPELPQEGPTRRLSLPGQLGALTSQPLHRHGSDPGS
smiles,measurement,value
"Cl.N[C@]1(c2ccc(C(F)(F)F)cc2)CCC[C@H](O)C1=O [Compound 51, (2S,6S)-2-amino-6-hydroxy-2-(4-(trifluoromethyl)phenyl)cyclohexane-1-one hydrochloride]",pIC50,< 4.40
